Laboratory results published in BigSolDB 2.1.

CCc1ccc(C(=O)c2ccccc2C(=O)O)cc1
Conditions | solubility (mole fraction)
in 1,4-dioxane, 288.88 K | 0.0042
in 1,4-dioxane, 293.97 K | 0.0066
in 1,4-dioxane, 298.46 K | 0.0091
in 1,4-dioxane, 303.53 K | 0.0121
in 1,4-dioxane, 308.09 K | 0.0153
in 1,4-dioxane, 313.4 K | 0.0195
in 1,4-dioxane, 319.15 K | 0.024
in 1,4-dioxane, 322.54 K | 0.0278
in 1,4-dioxane, 333.97 K | 0.0353
in DMF, 281.2 K | 0.343
in DMF, 286.49 K | 0.367
in DMF, 290.63 K | 0.382
in DMF, 296.42 K | 0.42
in DMF, 305.65 K | 0.451
in DMF, 314.34 K | 0.47
in DMF, 325.55 K | 0.507
in DMF, 335.75 K | 0.532
in NMP, 280.1 K | 0.163
in NMP, 284.15 K | 0.175
in NMP, 293.44 K | 0.209
in NMP, 303.76 K | 0.26
in NMP, 313.15 K | 0.315
in NMP, 322.85 K | 0.396
in NMP, 334.3 K | 0.484
in THF, 281.2 K | 0.0064
in THF, 286.49 K | 0.0085
in THF, 296.42 K | 0.0125
in THF, 305.65 K | 0.0178
in THF, 314.34 K | 0.0246
in THF, 325.55 K | 0.0377
in THF, 330.34 K | 0.0442
in THF, 335.75 K | 0.0541
in acetone, 280.25 K | 0.0015
in acetone, 284.85 K | 0.0022
in acetone, 290.87 K | 0.0032
in acetone, 299.83 K | 0.0054
in acetone, 310.39 K | 0.0087
in acetone, 314.89 K | 0.0107
in acetone, 319.6 K | 0.0132
in acetone, 324.16 K | 0.0156
in benzene, 283.05 K | 0.0023
in benzene, 288.68 K | 0.0037
in benzene, 293.52 K | 0.0052
in benzene, 302.78 K | 0.0109
in benzene, 313.15 K | 0.0228
in benzene, 322.65 K | 0.0408
in benzene, 328.38 K | 0.0598
in benzene, 332.7 K | 0.0793
in ethanol, 282.29 K | 0.0733
in ethanol, 289.68 K | 0.1
in ethanol, 294.91 K | 0.123
in ethanol, 304.6 K | 0.164
in ethanol, 314.3 K | 0.214
in ethanol, 322.91 K | 0.256
in ethanol, 328.65 K | 0.289
in ethanol, 338.19 K | 0.354
in ethanol, 342.82 K | 0.388
in ethyl formate, 280.6 K | 0.0014
in ethyl formate, 289.68 K | 0.0027
in ethyl formate, 294.91 K | 0.0038
in ethyl formate, 299.65 K | 0.005
in ethyl formate, 304.6 K | 0.006
in ethyl formate, 309.59 K | 0.0075
in ethyl formate, 314.3 K | 0.0087
in ethyl formate, 318.67 K | 0.01
in ethyl formate, 322.91 K | 0.0113
in isopropanol, 279.79 K | 0.0023
in isopropanol, 284.74 K | 0.0037
in isopropanol, 294.05 K | 0.0085
in isopropanol, 303.99 K | 0.0174
in isopropanol, 313.25 K | 0.0305
in isopropanol, 323.37 K | 0.0464
in isopropanol, 334.05 K | 0.0631
in methanol, 279.9 K | 0.0627
in methanol, 285.6 K | 0.0827
in methanol, 290.81 K | 0.101
in methanol, 295.45 K | 0.118
in methanol, 305.56 K | 0.164
in methanol, 314.4 K | 0.202
in methanol, 323.8 K | 0.248
in methanol, 328.69 K | 0.273
in methanol, 333.53 K | 0.3
in n-propanol, 279.55 K | 0.0499
in n-propanol, 288.67 K | 0.0777
in n-propanol, 299.23 K | 0.121
in n-propanol, 308.86 K | 0.168
in n-propanol, 318.93 K | 0.223
in n-propanol, 328.62 K | 0.279
in n-propanol, 338.45 K | 0.344
in n-propanol, 343.15 K | 0.387
